{"source": "ChEMBL document CHEMBL5360578", "about": "“Design, synthesis and evaluation of novel pyrrole-hydroxybutenolide hybrids as promising antiplasmodial and anti-inflammatory agents” (Eur J Med Chem, 2023)", "key": {"[1]": {"assay": "Cmax in fasted Swiss mouse at 100 mg/kg, po measured upto 48 hrs by LC-MS/MS analysis", "type": "ADME, organism-based", "parameters": "time < 48 hrs, dose 100 mg/kg, route po", "details": "in vivo"}, "THP-1 [2]": {"test_system": "THP-1", "assay": "Cytotoxicity against LPS-stimulated human THP-1 cells assessed as cell viability at 10 uM incubated for 12 hrs followed by LPS treatment measured after 4 hrs by PI staining based flow cytometry", "type": "functional", "details": "time 16.0 hrs"}, "[3]": {"assay": "Clearance in fasted Swiss mouse at 100 mg/kg, po measured upto 48 hrs by LC-MS/MS analysis", "type": "ADME, organism-based", "details": "in vivo"}, "Plasmodium falciparum [4]": {"test_system": "Plasmodium falciparum", "assay": "Antimalarial activity against asynchronous chloroquine-sensitive Plasmodium falciparum 3D7 assessed as parasite growth inhibition infected in erythrocytes incubated for 72 hrs by SYBR green dye based assay", "type": "functional, organism-based", "details": "3D7, 72 h"}, "[5]": {"assay": "Stability in simulated physiological fluid assessed as compound remaining at pH 7.4 measured upto 120 mins by LC-MS analysis", "type": "physicochemical", "details": "read-out: Stability"}, "Plasmodium falciparum [6]": {"test_system": "Plasmodium falciparum", "assay": "Antimalarial activity against asynchronous chloroquine-resistant Plasmodium falciparum K1 assessed as parasite growth inhibition infected in erythrocytes incubated for 72 hrs by SYBR green dye based assay", "type": "functional, organism-based", "details": "K1, 72 h"}, "[7]": {"assay": "AUC in fasted Swiss mouse at 100 mg/kg, po measured upto 48 hrs by LC-MS/MS analysis", "type": "ADME, organism-based", "parameters": "dose 100 mg/kg, time < 48 hrs, route po", "details": "in vivo"}, "[8]": {"assay": "Stability in simulated gastric fluid assessed as compound remaining at pH 1.2 measured upto 120 mins by LC-MS analysis", "type": "ADME", "details": "read-out: Stability"}, "[9]": {"assay": "Cytotoxicity against African green monkey Vero cells incubated for 3 days by fluorescence based assay", "type": "toxicity, cell-based", "details": "chlorocebus sabaeus, time 3 day"}, "Plasmodium yoelii [10]": {"test_system": "Plasmodium yoelii", "assay": "Antimalarial activity against chloroquine-resistant Plasmodium yoelii N67 infected in Swiss mouse assessed as parasite growth suppression at 100 mg/kg/day, po for 4 days measured on day 7 relative to control", "type": "functional", "details": "time 7 day"}, "[11]": {"assay": "Volume of distribution in fasted Swiss mouse at 100 mg/kg, po measured upto 48 hrs by LC-MS/MS analysis", "type": "ADME, organism-based", "details": "in vivo"}, "[12]": {"assay": "Tmax in fasted Swiss mouse at 100 mg/kg, po measured upto 48 hrs by LC-MS/MS analysis", "type": "ADME, organism-based", "details": "in vivo"}, "THP-1 [13]": {"test_system": "THP-1", "assay": "Antiinflammatory activity against human THP-1 cells assessed as inhibition of LPS-induced TNFalpha level at 10 uM incubated for 12 to 14 hrs followed by compound replenishment for 1 hr and subsequent LPS treatment for 4 hrs by ELISA assay (reference value: 93.43 %)", "type": "functional", "parameters": "scale not given: the % may be the effect or the level left", "details": "time 17-19 hrs"}, "[14]": {"assay": "Stability in simulated intestinal fluid assessed as compound remaining at pH 6.8 measured upto 120 mins by LC-MS analysis", "type": "ADME", "details": "read-out: Stability"}, "[15]": {"assay": "Toxicity in Swiss mouse infected with chloroquine-resistant Plasmodium yoelii N67 assessed as mean survival time at 100 mg/kg/day, po for 4 days (reference value: 7.2 +/- 1.3 day)", "type": "organism-based", "details": "in vivo, 96 h, time 4 day"}, "[16]": {"assay": "MRT in fasted Swiss mouse at 100 mg/kg, po measured upto 48 hrs by LC-MS/MS analysis", "type": "ADME, organism-based", "details": "in vivo"}, "[17]": {"assay": "Half life in fasted Swiss mouse at 100 mg/kg, po measured upto 48 hrs by LC-MS/MS analysis", "type": "ADME, organism-based", "details": "in vivo"}, "Plasmodium yoelii [18]": {"test_system": "Plasmodium yoelii", "assay": "Antimalarial activity against chloroquine-resistant Plasmodium yoelii N67 infected in Swiss mouse assessed as parasite growth suppression at 100 mg/kg/day, po for 4 days measured on day 4 relative to control", "type": "functional", "details": "time 4 day"}, "[19]": {"assay": "Stability in mouse plasma assessed as compound remaining at 10 uM measured upto 120 mins by LC-MS analysis", "type": "ADME, cell-free", "details": "read-out: Stability"}, "HEK-293T": {"test_system": "HEK-293T", "assay": "Antiinflammatory activity against HEK293T cells assessed as fold increase in TNFalpha-induced NF-kappaB activity at 10 uM incubated for 1 hr followed by TNFalpha treatment for 5 hrs by luciferase based assay (reference value: 17.1)", "type": "functional, Homo sapiens"}}, "note": "Activity calls are given as the source filed them. The rule behind the calls is not given here.", "data": [{"smiles": "Cc1c(C(=O)Nc2ccccc2)c(-c2ccccc2)c(-c2ccc(C(C)C)cc2)n1CC1=CC(=O)OC1O", "note": "(stereo not given)", "values": [{"measurement": "Cmax", "setting": "[1]", "value": 415, "unit": "ng/mL"}, {"measurement": "Activity", "setting": "THP-1 [2]", "value": "Active"}, {"measurement": "CL/F", "setting": "[3]", "value": 966, "unit": "mL/min/kg"}, {"measurement": "IC50", "setting": "Plasmodium falciparum [4]", "value": 960, "unit": "nM"}, {"measurement": "remaining at 2 h", "setting": "[5]", "value": 94.8, "unit": "%"}, {"measurement": "IC50", "setting": "Plasmodium falciparum [6]", "value": 1670, "unit": "nM"}, {"measurement": "AUC at 48 h", "setting": "[7]", "value": 1730, "unit": "ng·h/mL"}, {"measurement": "remaining at 2 h", "setting": "[8]", "value": 85.4, "unit": "%"}, {"measurement": "CC50 at 72 h", "setting": "[9]", "value": 126000, "unit": "nM"}, {"measurement": "Activity", "setting": "Plasmodium yoelii [10]", "value": 100, "unit": "%"}, {"measurement": "Vd", "setting": "[11]", "value": 270.36, "unit": "L/kg"}, {"measurement": "Tmax", "setting": "[12]", "value": 0.25, "unit": "h"}, {"measurement": "Activity", "setting": "THP-1 [13]", "value": 91.44, "unit": "%"}, {"measurement": "remaining at 2 h", "setting": "[14]", "value": 86.2, "unit": "%"}, {"measurement": "MST", "setting": "[15]", "value": 23.4, "unit": "days"}, {"measurement": "MRT", "setting": "[16]", "value": 5.34, "unit": "h"}, {"measurement": "half-life", "setting": "[17]", "value": 3.23, "unit": "h"}, {"measurement": "Activity", "setting": "Plasmodium yoelii [18]", "value": 77.79, "unit": "%"}, {"measurement": "remaining at 2 h, 10 µM", "setting": "[19]", "value": 85.8, "unit": "%"}, {"measurement": "fold change (FC)", "setting": "HEK-293T", "value": 9.4}]}]}
